Data set [1] concerns the target T1, GST::err1 fusion proteins (Trichoderma reesei, UniProt Q0GYU5).
T1 construct: made in house; host or cells: E. coli BL21 (DE3) pLysS
In words: Enzyme assay measuring NADPH-decrease with different substrates. The format is biochemical. The note with it: NADPH decrease at 340 nm; 400 μM NADPH, 10 mM substrate, 30° C., pH 7. Here is the method: The following 1 mL assay was performed: 400 μM NADPH (in 10 mM sodium phosphate buffer, pH 7), and 25 μL purified GST::err1 enzyme were mixed in an lmL quartz cuvette and incubated at 30° C. for 1 min. Then adding D-erythrose to a final concentration of 10 mM started the reaction. The decrease of NADPH concentration was measured in a spectrophotometer at 340 nm. As a control, a blank was performed using water instead of D-erythrose.

The target of data set [2] is T1, GST::err1 fusion proteins. The data set is described as follows: HPLC analysis of the enzymatic conversion of erythrose. In kind it is biochemical. To be noted: 4 mM NADPH, 5 mM erythrose, 25° C. or 37° C., 2 h. Here is the method: The following 1 mL assays have been performed prior to HPLC analysis: Assay 1 comprised 4 mM NADPH (in 10 mM sodium phosphate buffer, pH 7), 25 μL purified GST::err1 enzyme, 5 mM erythrose and was incubated at 25° C. for 2 hours. Assay 2 was performed according to assay 1, but was incubated at 37° C. for 2 h. Both assays were stopped by incubating at 85° C. for 10 min and afterwards were filtered using 0.2 μm filters. As negative control assay 3 was performed like assay 1, but was immediately stopped by incubation at 85° C. for 10 min and assay 4 was performed according to assay 1, but sodium phosphate buffer instead of erythrose was used and it was immediately stopped at 85° C. for 10 min.
Analyses were performed using a Thermo Finnigan Surveyor HPLC instrument (Thermo Fisher Scientific, MA, US). All 10 μL samples were injected onto a Rezex RHM-Monosaccharide column (H+, 8%, 150×7.8 mm; Phenomenex, CA, US). Water was used as the mobile phase and elution was followed at 85° C., applying a flow rate of 0.3 mL/min for 20 min. 1 mM D-Erythrose (Sigma) and erythritol (Sigma) were used as reference substances.

For a further data set, the target named is T2, Err1 (Trichoderma reesei, UniProt Q0GYU5).
T2 sequence (Q0GYU5 1-331): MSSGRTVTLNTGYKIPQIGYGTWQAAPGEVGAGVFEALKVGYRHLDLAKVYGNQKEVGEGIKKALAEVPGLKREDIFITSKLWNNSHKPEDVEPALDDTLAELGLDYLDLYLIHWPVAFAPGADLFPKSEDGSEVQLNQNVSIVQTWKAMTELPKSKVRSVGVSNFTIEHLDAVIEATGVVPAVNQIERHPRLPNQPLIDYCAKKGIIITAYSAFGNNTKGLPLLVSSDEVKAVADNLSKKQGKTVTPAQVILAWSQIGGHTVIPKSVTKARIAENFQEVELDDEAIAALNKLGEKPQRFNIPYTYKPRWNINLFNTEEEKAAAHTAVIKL
In words: Determination of Vmax and Km according to Liepins et al. (2006).

Substrate in data set [3]: O=CC=O
The data set is described as follows: purified protein, by the assay type. To be noted: other: substrate of Err1.

Substrate in data set [4]: O=C[C@H](O)CO
The data set is described as follows: purified protein, by the assay type. The note with it: other: substrate of Err1.

As for `O=C[C@H](O)[C@H](O)CO` [Erythrose, D-erythrose], the Absorbance decrease in data set [1] is −83.77 mAbs/min. In data set [2], the “enzymatic conversion of erythrose (HPLC)” value was “reduced to erythritol”. Besides, the “activity compared with the other substrates” value at Err1 (higher activity versus substrates with good activity for GLD1) was “approximately 10 fold”. At Err1 (substrate of Err1), the Michaelis-Menten constant (Km) stood at 16 µM and the Vmax is 530 nkat/mg.

As for `O=CC=O` [Glyoxal, glyoxal, reference compound], the Absorbance decrease in data set [1] is given as −83.28 mAbs/min.

B1: Err1 (Trichoderma reesei) (protein)
chain: MSSGRTVTLNTGYKIPQIGYGTWQAAPGEVGAGVFEALKVGYRHLDLAKVYGNQKEVGEGIKKALAEVPGLKREDIFITSKLWNNSHKPEDVEPALDDTLAELGLDYLDLYLIHWPVAFAPGADLFPKSEDGSEVQLNQNVSIVQTWKAMTELPKSKVRSVGVSNFTIEHLDAVIEATGVVPAVNQIERHPRLPNQPLIDYCAKKGIIITAYSAFGNNTKGLPLLVSSDEVKAVADNLSKKQGKTVTPAQVILAWSQIGGHTVIPKSVTKARIAENFQEVELDDEAIAALNKLGEKPQRFNIPYTYKPRWNINLFNTEEEKAAAHTAVIKL
With B1, the Km is 2400 µM in data set [3] and 900 µM in data set [4]. The Vmax in data set [3] stood at 22.5 µmol/min/mg; in data set [4], 9 µmol/min/mg.

In general, Km refers to the concentration of substrate that gives half-maximal velocity.
